Experimental data taken from patent publication US8324245B2, “Quinoline derivative and quinazoline derivative inhibiting self-phosphorylation of hepatocytus proliferator receptor, and medicinal composition containing the same” (Kyowa Hakko Kirin Co., Ltd., priority 2001, dated 2012).

Each compound was assayed against T1, met (HGF receptor) in human gastric cancer cells MKN45 (Homo sapiens, UniProt P08581) (assay: Inhibitory activity against met-autophosphorylation using ELISA method (2), MKN45 cells, HGF-independent).
T1 construct: endogenous in cells; host or cells: MKN45 human gastric cancer cells
T1 sequence (P08581 25-1390): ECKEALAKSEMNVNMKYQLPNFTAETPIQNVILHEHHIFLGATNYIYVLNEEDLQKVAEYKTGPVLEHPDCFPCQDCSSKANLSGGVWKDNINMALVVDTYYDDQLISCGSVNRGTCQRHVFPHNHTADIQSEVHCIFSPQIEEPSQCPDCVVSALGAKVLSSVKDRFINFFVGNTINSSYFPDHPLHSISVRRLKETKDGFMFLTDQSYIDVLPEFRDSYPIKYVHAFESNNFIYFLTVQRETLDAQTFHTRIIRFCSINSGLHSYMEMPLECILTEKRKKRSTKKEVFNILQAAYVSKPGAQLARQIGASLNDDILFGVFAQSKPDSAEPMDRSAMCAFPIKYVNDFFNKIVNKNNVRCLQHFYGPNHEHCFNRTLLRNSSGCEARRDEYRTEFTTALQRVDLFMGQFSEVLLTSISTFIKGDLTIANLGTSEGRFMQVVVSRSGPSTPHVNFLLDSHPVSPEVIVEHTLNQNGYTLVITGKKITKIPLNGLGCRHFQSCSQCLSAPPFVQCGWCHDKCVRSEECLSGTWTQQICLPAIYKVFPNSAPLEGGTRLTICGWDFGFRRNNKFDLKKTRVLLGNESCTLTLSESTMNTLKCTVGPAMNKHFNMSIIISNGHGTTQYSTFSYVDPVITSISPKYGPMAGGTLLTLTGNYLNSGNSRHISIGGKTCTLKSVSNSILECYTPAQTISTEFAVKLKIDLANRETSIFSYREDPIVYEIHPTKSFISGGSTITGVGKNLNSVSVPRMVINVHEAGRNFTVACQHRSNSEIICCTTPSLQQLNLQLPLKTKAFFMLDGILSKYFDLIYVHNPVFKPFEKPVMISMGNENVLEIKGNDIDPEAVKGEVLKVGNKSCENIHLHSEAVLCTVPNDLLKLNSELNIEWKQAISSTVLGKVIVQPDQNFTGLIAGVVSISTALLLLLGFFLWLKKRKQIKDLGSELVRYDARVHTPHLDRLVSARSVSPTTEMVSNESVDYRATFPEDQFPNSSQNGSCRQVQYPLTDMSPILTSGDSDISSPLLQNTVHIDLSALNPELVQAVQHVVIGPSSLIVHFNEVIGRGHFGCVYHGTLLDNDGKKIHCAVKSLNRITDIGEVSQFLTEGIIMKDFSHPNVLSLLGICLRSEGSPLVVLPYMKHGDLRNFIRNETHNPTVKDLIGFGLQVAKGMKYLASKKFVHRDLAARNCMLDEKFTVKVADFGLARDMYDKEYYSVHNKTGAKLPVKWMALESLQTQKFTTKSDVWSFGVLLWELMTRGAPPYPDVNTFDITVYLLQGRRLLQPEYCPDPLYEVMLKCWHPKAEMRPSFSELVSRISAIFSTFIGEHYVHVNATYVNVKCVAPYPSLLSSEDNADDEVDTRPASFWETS
Assay type: cell-based
Method: Cells were cultured with RPMI medium containing 0.1% fetal calf serum in 96-well flat-bottom plate in an amount of 3×10^4 per well, and were incubated at 37° C. overnight. The medium was then replaced by a fresh RPMI medium containing 0.1% fetal calf serum. A solution of the test compound in dimethyl sulfoxide was added to each well, and the incuvation was continued at 37° C. for additional one hr. The medium was removed, the cells were washed with phosphate buffered saline (pH 7.4), and 50 μl of a lysis buffer (20 mM HEPES (pH 7.4), 150 mM NaCl, 0.2% Triton X-100, 10% glycerol, 5 mM sodium orthovanadylate, 5 mM disodium ethylenediaminetetraacetate, and 2 mM Na4P2O7) was then added thereto. The mixture was shaken at 4° C. for 2 hr to prepare a cell extract.
Separately, phosphate buffered saline (50 μl, pH 7.4) containing 5 μg/ml of anti-phospho-tyrosine antibody (PY20; purchased from Transduction Laboratories) was added to a microplate for ELISA (Maxisorp; purchased from NUNC), followed by gentle agitation at 4° C. overnight to coat the surface of the wells with the antibody. After washing of the plate, 300 μl of a blocking solution was added, followed by gentle agitation at room temperature for 2 hr to perform blocking. After washing, the whole quantity of the cell extract was transferred to the wells, and the plate was then allowed to stand at 4° C. overnight. After washing, an anti-HGF receptor antibody (h-Met (C-12), purchased from Santa Cruz Biotechnology) was allowed to react at room temperature for one hr, and, after washing, a peroxidase-labeled anti-rabbit Ig antibody (purchased from Amersham) was allowed to react at room temperature for one hr. After washing, a chromophoric substrate for peroxidase (purchased from Sumitomo Bakelite Co., Ltd.) was added thereto to initiate a reaction. After a suitable level of color development, a reaction termination solution was added to stop the reaction, and the absorbance at 450 nm was measured with a microplate reader.
In the case of `COc1cc2nccc(Oc3ccc(NC(=O)C(OC)C(=O)Nc4ccc(F)cc4F)cc3)c2cc1OC` (stereo not drawn) [Example 103, N-(2,4-difluorophenyl)-N′-[4-(6,7-dimethoxy-quinolin-4-yloxy)phenyl]-2-methoxymalonamide], the IC50 is reported as 2770 nM.
In the case of `COc1cc2nccc(Oc3ccc(NC(=O)NC(=O)Cc4cccs4)cc3F)c2cc1OC` [Example 31, 1-[4-(6,7-dimethoxyquinolin-4-yloxy)-3-fluoro-phenyl]-3-(2-thiophen-2-ylacetyl)urea], the IC50 is reported as 34.1 nM.
Compound `COc1cc2c(Oc3ccc(NC(=O)NC(=O)Cc4ccc(F)cc4)c(F)c3)ccnc2cc1OCCCCN1CCCCC1` [Example 45, 1-{2-fluoro-4-[6-methoxy-7-(4-piperidine-1-yl-butoxy)quinolin-4-yloxy]phenyl}-3-[2-(4-fluorophenyl)-acetyl]urea] has an IC50 of 207 nM.
For `COc1cccc(C(=O)NC(=S)Nc2ccc(Oc3ccnc4cc(OC)c(OC)cc34)c(F)c2)c1` [Example 144, 1-[4-(6,7-dimethoxyquinolin-4-yloxy)-3-fluorophenyl]-3-(3-methoxybenzoyl)thiourea], the IC50 was 699 nM.
`COc1cc2nccc(Oc3ccc(NC(=O)NC(=O)Cc4ccc(F)cc4F)c(F)c3)c2cc1OC` [Example 33, 1-[2-(2,4-difluorophenyl)acetyl]-3-[4-(6,7-dimethoxyquinolin-4-yloxy)-2-fluorophenyl]urea] showed an IC50 of 61.8 nM.
Work on `COc1cc2nccc(Oc3ccc(NC(=S)NC(=O)Cc4ccccc4F)cc3Cl)c2cc1OC` [Example 152, 1-[3-chloro-4-(6,7-dimethoxyquinolin-4-yloxy)phenyl]-3-[2-(2-fluorophenyl)acetyl]thiourea] yielded an IC50 of 248 nM.
Work on `COc1cc2nccc(Oc3ccc(NC(=O)NC(=O)Cc4ccccc4)cc3)c2cc1OC` [Example 4, 1-[4-(6,7-dimethoxyquinolin-4-yloxy)phenyl]-3-phenyl-acetylurea] yielded an IC50 of 75 nM.
With `COc1cc2c(Oc3ccc(NC(=S)NC(=O)Cc4cccc(F)c4)cc3F)ccnc2cc1OCCCN1CCOCC1` [Example 289] the IC50 was 23.8 nM.
In the case of `COc1cc2nccc(Oc3ccc(NC(=S)NC(=O)Cc4ccccc4)cc3C)c2cc1OC` [Example 67, 1-[4-(6,7-dimethoxyquinolin-4-yloxy)-3-methyl-phenyl]-3-phenylacetylthiourea], the IC50 is reported as 19.7 nM.
With `COc1cccc(CC(=O)NC(=S)Nc2ccc(Oc3ccnc4cc(OC)c(OC)cc34)c(Cl)c2)c1` [Example 186, 1-[3-chloro-4-(6,7-dimethoxyquinolin-4-yloxy)phenyl]-3-[2-(3-methoxyphenyl)acetyl]thiourea] the IC50 was 234 nM.
Work on `COc1cc2nccc(Oc3ccc(NC(=S)NC(=O)Cc4cccc(F)c4F)c(F)c3)c2cc1OC` [Example 194, 1-[2-(2,3-difluorophenyl)acetyl]-3-[4-(6,7-dimethoxyquinolin-4-yloxy)-2-fluorophenyl]thiourea] yielded an IC50 of 319 nM.
For `COc1cc2nccc(Oc3ccc(NC(=O)CC(=O)Nc4ccc(F)cc4F)c(C)c3)c2cc1OC` [Example 223, N-(2,4-difluorophenyl)-N′-[4-(6,7-dimethoxy-quinolin-4-yloxy)-2-methylphenyl]malonamide], the IC50 was 268 nM.
`COc1cc2nccc(Oc3ccc(NC(=O)NC(=O)CSC4CCCCC4)c(F)c3)c2cc1OC` [Example 114, 1-(2-cyclohexylsulfanylacetyl)-3-[4-(6,7-dimethoxyquinolin-4-yloxy)-2-fluorophenyl]urea] showed an IC50 of 485 nM.
In the case of `COc1cc2nccc(Oc3ccc(NC(=S)NC(=O)Cc4c(Cl)cccc4Cl)c(F)c3)c2cc1OC` [Example 208, 1-[2-(2,6-dichlorophenyl)acetyl]-3-[4-(6,7-dimethoxyquinolin-4-yloxy)-2-fluorophenyl]thiourea], the IC50 is reported as 258 nM.
Work on `COc1cc2nccc(Oc3ccc(NC(=S)NC(=O)Cc4ccc(Cl)cc4)cc3)c2cc1OC` [Example 187, 1-[2-(4-chlorophenyl)acetyl]-3-[4-(6,7-dimethoxyquinolin-4-yloxy)phenyl]thiourea] yielded an IC50 of 258 nM.
In the case of `COc1cc2c(Oc3ccc(NC(=O)NC(=O)Cc4ccc(F)cc4)cc3F)ccnc2cc1OCCCCN1CCCCC1` [Example 42, 1-{3-fluoro-4-[6-methoxy-7-(4-piperidine-1-yl-butoxy)quinolin-4-yloxy]phenyl}-3-[2-(4-fluorophenyl)-acetyl]urea], the IC50 is reported as 190 nM.
`COc1cc2nccc(Oc3ccc(NC(=S)NC(=O)Cc4ccccc4[N+](=O)[O-])cc3Cl)c2cc1OC` [Example 156, 1-[3-chloro-4-(6,7-dimethoxyquinolin-4-yloxy)phenyl]-3-[2-(2-nitrophenyl)acetyl]thiourea] gave an IC50 of 373 nM.
`COc1cc2c(Oc3ccc(NC(=S)NC(=O)Cc4ccc(F)cc4)cc3F)ccnc2cc1OCC(O)CN1CCCC1` (stereo not drawn) [Example 330, 1-{3-Fluoro-4-[7-(2-hydroxy-3-pyrrolidin-1-yl-propoxy)-6-methoxy-quinolin-4-yloxy]-phenyl}-3-[2-(4-fluoro-phenyl)-acetyl]-thiourea] was tested, and the IC50 was 20.6 nM.
In the case of `COc1cc2nccc(Oc3ccc(NC(=S)NC(=O)Cc4ccc(F)c(F)c4)c(F)c3)c2cc1OC` [Example 198, 1-[2-(3,4-difluorophenyl)acetyl]-3-[4-(6,7-dimethoxyquinolin-4-yloxy)-2-fluorophenyl]thiourea], the IC50 is reported as 294 nM.
For `COc1cc2c(Oc3ccc(NC(=O)NC(=O)Cc4ccc(F)cc4)cc3F)ccnc2cc1OCCCCN1CCOCC1` [Example 41, 1-{3-fluoro-4-[6-methoxy-7-(4-morpholin-4-yl-butoxy)quinolin-4-yloxy]phenyl}-3-[2-(4-fluorophenyl)-acetyl]urea], the IC50 was 281 nM.
`COc1cc2nccc(Oc3ccc(NC(=O)NC(=O)CN4CCc5ccccc54)cc3F)c2cc1OC` [Example 122, 1-[2-(2,3-dihydro-1H-1-indol-1-yl)acetyl]-3-[4-(6,7-dimethoxyquinolin-4-yloxy)-3-fluorophenyl]urea] was tested, and the IC50 was 303 nM.
Work on `COc1cc2nccc(Oc3ccc(NC(=O)CC(=O)NCC4CCCCC4)cc3)c2cc1OC` [Example 218, N-cyclohexylmethyl-N′-[4-(6,7-dimethoxy-quinolin-4-yloxy)phenyl]malonamide] yielded an IC50 of 479 nM.
Compound `CCN(CC)CC(=O)NC(=O)Nc1ccc(Oc2ccnc3cc(OC)c(OC)cc23)c(Cl)c1` [Example 110, 1-[3-chloro-4-(6,7-dimethoxyquinolin-4-yloxy)phenyl]-3-(2-diethylaminoacetyl)urea] has an IC50 of 2380 nM.
`COc1cc2c(Oc3ccc(NC(=S)NC(=O)Cc4cccc(Cl)c4)cc3F)ccnc2cc1OCC(O)CN1CCCCC1` (stereo not drawn) [Example 321, 1-[2-(3-Chloro-phenyl)-acetyl]-3-{3-fluoro-4-[7-(2-hydroxy-3-piperidin-1-yl-propoxy)-6-methoxy-quinolin-4-yloxy]-phenyl}-thiourea] showed an IC50 of 125 nM.
`COc1cc2nccc(Oc3ccc(NC(=O)C(C)(C)C(=O)Nc4ccccc4)cc3)c2cc1OC` [Example 228, N-[4-(6,7-dimethoxyquinolin-4-yloxy)phenyl]-2,2-dimethyl-N′-phenylmalonamide] was tested, and the IC50 was 394 nM.
`COc1cc2nccc(Oc3ccc(NC(=O)CC(=O)Nc4ccc(F)cc4F)cc3F)c2cc1OC` [Example 99, N-(2,4-difluorophenyl)-N′-[4-(6,7-dimethoxy-quinolin-4-yloxy)-3-fluorophenyl]malonamide] showed an IC50 of 25.6 nM.
`COc1cc2c(Oc3ccc(NC(=O)NC(=O)Cc4ccccc4)cc3F)ccnc2cc1OCC(O)CN1CCOCC1` (stereo not drawn) [Example 337, 1-{3-Fluoro-4-[7-(2-hydroxy-3-morpholin-1-yl-propoxy)-6-methoxy-quinolin-4-yloxy]-phenyl}-3-(2-phenyl-acetyl)-urea] showed an IC50 of 22 nM.
